In patent publication US20200329698A1, “COMPOSITIONS FOR ORGAN GRAFT PRESERVATION AND METHODS OF USE” (Nobilis Therapeutics, Inc., priority 2019, published 2020):

What was measured:
[1] = system: JAK/STAT signaling pathway; settings: cited from earlier work
[2] = system: Lewis rat lung grafts extracted after cardiac death
Experimental: Inbred adult male Lewis rats (LEW, RT1^1) weighing 225-250 g were purchased from Harlan, UK and bred in temperature- and humidity-controlled cages in a specific pathogen-free facility at the Chelsea-Westminster Campus, Imperial College London. All animal procedures were carried out in accordance with the United Kingdom Animals (Scientific Procedures) Act of 1986. For cardiac arrest model (DCD donor) in anaesthetized rats, anticoagulation was accomplished by injecting 250 U Heparin in 1 ml saline via the penile vein. Five minutes after heparinization, a laparotomy was performed through a midline incision. A thoracotomy was performed followed by induction of cardiac arrest by external compression of the heart for 5 min. After induction of cardiac arrest, the aorta was closed using a vascular clamp rostral from the heart. The thoracotomy wound was covered with gauze and kept moist with 0.9% NaCl. After 40 minutes in DCD donors, the entire graft, lung or kidney, in the donor was isolated and excised. Lung grafts were flushed through the main pulmonary artery and stored at 4° C. for 16 hours with either control UW solution or UW with Dex (0.1 nM) solution. Lung or kidney grafts were fixed in 4% parafamydehyde and paraffin. Sections of 5-μm thickness were taken from the kidney specimens and haematoxylin & eosin (H&E) staining was carried out. Lung cell morphology in each graft (10 fields in the cortex at ×20 magnifications) was evaluated by an observer blinded to the treatment using an OLYMPUS™ (Watford, UK) BX4 microscope under constant exposure level. The score for each field was calculated from the sum score of 10 areas chosen at a random. For the lung sections, the injury was categorised into Grade 0: normal appearance, negligible damage; Grade 1: mild moderate interstitial congestion and neutrophil leukocyte infiltrations; Grade 2: perivascular oedema formation, partial destruction of pulmonary architecture and moderate cell infiltration; Grade 3: moderate lung alveolar damage and intensive cell infiltration; Grade 4: severe cell infiltration and severe destruction of the pulmonary architecture. For in vivo fluorescence or DAB staining, 25-μm frozen lung sections were incubated with rabbit anti-Rip1 (1:200, SANTA CRUZ BIOTECHNOLOGY®), rabbit anti-Rip3 (1:200, SANTA CRUZ BIOTECHNOLOGY®), mouse anti-HMGB-1 (1:200, Abcam), Goat anti-TLR-4 (1:200, SANTA CRUZ BIOTECHNOLOGY®), rabbit anti-Nrf-2 (1:200, SANTA CRUZ BIOTECHNOLOGY®), mouse anti-SOD-1 (1:200, Abcam), mouse anti-NQO-1 (1:200 Abcam), rabbit anti-3-nitrotyrosine (1:200, Abcam) and rabbit anti-4-hydroxynonenal (1:200, Abcam) at 4° C. overnight. After washing with PBST, the slides were incubated with fluorochrome-conjugated secondary antibodies (MILLIPORE™, UK). For double-labelled immunofluorescence, lung samples were incubated with the first primary antibody overnight, followed by the first secondary antibody, and then the second primary antibody and the second secondary antibody. The slides were counterstained with nuclear dye DAPI and mounted with […]® Mounting Medium (Vector lab, USA). Sections were examined using an OLYMPUS™ (Watford, UK) BX4 microscope under constant exposure level. Immunofluorescence was quantified using ImageJ (National Institutes of Health, Maryland, USA) and the background was subtracted. Ten representative regions per section (in vivo) or field (in vitro) were randomly selected by an assessor blinded to the treatment groups. Values were then calculated as percentages of the mean value for naïve controls and expressed as percentage fluorescence intensity. Lung alveolar cell death was detected by the in situ TUNEL assay (MILLIPORE™) according to the manufacturer's instructions. TUNEL nuclei were visualized by green FITC fluorescence. Tumor necrosis factor-α (TNF-α) in the culture medium were detected by ELISA (Human TNF-α ELISA kits, INVITROGEN®, UK). Rat lung tissue and serum TNF-α were measured by ELISA (Rat TNF-α ELISA kits, INVITROGEN®, UK). […]

[3] = Dex 0.1 nM in UW at 4° C., CI 16 hr, vs vehicle
[4] = Dex-saturated UW, CI 16 h, p<0.001
[5] = Dex-saturated UW, CI 16 h, p<0.05

Cc1cccc([C@H](C)c2cnc[nH]2)c1C [Dexmedetomidine]
level of p-JAK2 and its downstream effectors p-STAT1 and STATS ([1]; mice, warm ischemia-reperfusion injury): significant reduced level | long-term renal function ([1]; mouse, in vivo): long-term functional renoprotection | survival ([1]; mouse, in vivo): increased survival | tubular architecture and function following renal ischemia ([1]; pre- or post-treatment): improved tubular architecture and function | HMGB-1 release [2, 3]: reduction | TLR-4 activation (fluorescent intensity) [2, 3]: reduction | cell death (TUNEL staining) [2, 3]: reduced cell death | concentration of HMGB-1 in lung graft tissue (ELISA) [2, 3]: significantly reduced | concentration of IL-1β in lung graft tissue (ELISA) [2, 3]: significantly reduced | concentration of TNF-α in lung graft tissue (ELISA) [2, 3]: significantly reduced | expression of necroptosis marker RIP1 (fluorescent intensity) [2, 3]: significantly reduced | expression of necroptosis marker RIPS (RIPK3 fluorescent intensity) [2, 3]: significantly reduced | lung morphology (H&E, lung injury scoring) [2, 3]: marked improvement in morphology | expression of 3-nitrotyrosine (fluorescent intensity) ([2]; Dex-saturated UW, CI 16 h, vs control group, p<0.001): significant reduction | expression of 4-hydroxynonenal (fluorescent intensity) ([2]; Dex-saturated UW, CI 16 h, vs control group, p<0.05): significant reduction | expression of Nrf-2 (fluorescent intensity) [2, 4]: significant increase | expression of SOD-1 (fluorescent intensity) [2, 4]: significant increase | lung tissue GSH/GSSG ratio [2, 4]: significant increase | lung tissue GSSG level ([2]; Dex-saturated UW, CI 16 h, p<0.01): significant decrease | expression of NQO-1 (fluorescent intensity) [2, 5]: significant increase | lung tissue GSH level [2, 5]: significant increase
